Like-named read-outs stand apart in the source and are kept apart here.
Assays:
[1] = molecular target: T1, ICAM-1 binding to immobilized Mac-1 (Homo sapiens, UniProt P05107+P11215); assay: Mac-1/ICAM-1 screening assay (solid-phase ELISA)
T1 construct: made in house; host or cells: transfected 293 cells (Mac-1)
Method: (b) Mac-1/ICAM-1 screening test: Mac-1/ICAM-1 antagonist activity, defined as the ability to compete with ICAM-1 binding to immobilized Mac-1, was quantitated by a solid-phase ELISA.
(§1) Membrane-bound Mac-1 derived from transfected 293 cells was coated onto 96-well microtiter plates (50 μL/well, 3 μg/mL Mac-1 in 20 mM Hepes, pH 7.2/0.14 M NaCl/1 mM MnCl2) overnight at 4° C. The plates were blocked with 100 μL/well of 0.5% BSA in 20 mM Hepes, pH 7.2/0.14 M NaCl/1 mM MnCl2 at 37° C. for 1 h and washed 3 times (120 μL each) with Binding Buffer (20 mM Hepes, pH 7.2/0.14 M NaCl/1 mM MnCl2/0.05% Tween 20). Test compounds were dissolved in 100% DMSO and diluted 1:50 in Binding Buffer plus 10% DMSO. A series of 1:4 dilutions were performed for each compound (concentration range, 0.12 nM-20 μM). Each dilution (25 μL/well) was added to the plates, followed by 25 μL/well of 5 dICAM-Ig (40 μg/mL in Binding Buffer). The plates were shaken vigorously for 1 min (room temperature), followed by gentle agitation for 2 h (37° C.), and washed with Binding Buffer (3 times, 120 μL each). HRP-conjugated goat anti-human IgG(Fc-specific) antibody (0.125 μg/mL in Binding Buffer plus 0.05% BSA) was added to each well (50 μL/well), followed by incubation for 1 h at 37° C. The plates were then washed 3 times with Binding Buffer (120 μL each). TMB solution (100 μL/well) was added to each well for color development for 10 min. The reaction was stopped with 1 M H3PO4 (100 μL/well) and the plates were read at 450 nm. The inhibitory activities of test compounds were determined by the IC50s.
as §1, with “Mac-1/ICAM-1 antagonist activity, defined as the ability to compete with ICAM-1 binding to immobilized Mac-1, was quantitated by a solid-phase ELISA. Membrane-bound” for “Membrane-bound”, “5dICAM-Ig” for “5 dICAM-Ig”, “nm.” for “nm. The inhibitory activities of test compounds were determined by the IC50s.”

[2] = molecular target: T2, LFA-1 binding to immobilized ICAM-1 (Homo sapiens, UniProt P05107+P20701); assay: LFA-1/ICAM-1 protein-protein assay (solid-phase ELISA)
T2 construct: made in house; host or cells: transfected 293 cells (LFA-1)
Method: (a) LFA-1/ICAM-1 screening test: LFA-1/ICAM-1 antagonist activity, defined as the ability of compounds of the invention to block LFA-1 binding to immobilized ICAM-1, was quantitated using a solid-phase ELISA.
(§2) Typically, fusion protein consisting of the entire extracellular domain of human ICAM-1 and the Fc domain of human IgG (5dICAM-Ig) was coated onto 96-well microtiter plates (0.15 μg in 100 μL PBS) overnight at 4° C. The plates were then blocked with 150 μL of 1% BSA/1 mM MnCl2/0.14 M NaCl/20 mM HEPES, pH 7.2 for 1 h at 37° C. and washed 3 times (150 μL each) with Wash Buffer (50 mM Tris, pH 7.4/100 mM NaCl/1 mM MnCl2/0.05% Tween 20). Stock solutions (100 μM in 100% DMSO) of test compounds were diluted 50 fold with 150 μL of Binding Buffer (0.05% BSA/0.05% Tween 20/1 mM MnCl2/0.14 M NaCl/20 mM HEPES, pH 7.2) plus 10% DMSO. […] Fifty μL per well of each dilution was added to the ICAM-1 coated plates, followed by 50 μL per well of membrane-bound LFA-1 (280 ng/mL in Binding Buffer) derived from transfected 293 cells. The plates were shaken vigorously for 1 min (room temperature) and gently for 2 h (37° C.). After incubation, the plates were washed 3 times (150 μL each) with Wash Buffer. Mouse anti-human integrin β2 monoclonal antibody was added (100 μL/well, 1 μg/mL in Binding Buffer) and allowed to incubate for 1 h (37° C.) with gentle agitation. The plates were then washed 3 times with Wash Buffer. HRP-conjugated goat anti-mouse IgG (100 μL/well, 1:1500 dilution in Binding Buffer) was added to each well, followed by incubation for 1 h (37° C.), and concluded by three washes (150 μL each) with Wash Buffer. TMB solution (100 μL per well) was added for color development (10 min). The reaction was stopped by the addition of 100 μL of 1 M H3PO4 to each well. The plates were then read at 450 nm. The inhibitory activities of test compounds were determined by the IC50s.
as §2, with “LFA-1/ICAM-1 antagonist activity, defined as the ability to block LFA-1 binding to immobilized ICAM-1, was quantitated using a solid-phase ELISA. Typically,” for “Typically,”, “(0.05 %” for “(0.05%”, “nm.” for “nm. The inhibitory activities of test compounds were determined by the IC50s.”

[3] = system: cell-surface Mac-1 adhesion to immobilized fibrinogen (HL-60 cells); assay: Mac-1/Fibrinogen cell-based screening assay; design: species or system human; details: Homo sapiens, HL-60, HL-60 cells; read-out: Mac-1/Fgn Cell based Assay IC50
Method: Cellular Mac-1/Fibrinogen antagonist activity, defined as the ability to inhibit cell-surface Mac-1 adhesion to immobilized fibrinogen, was quantitated by a cell based assay. Human fibrinogen was coated onto 96 well microtiter plates (1 μg in 100 μL TBS) overnight at 4° C. The plates were then blocked with 150 μL of 10% polyvinyl pyrrolidone (PVP) in TBS for 1 h at 37° C. Plates were washed 3 times (150 μL each) with TBS. […] A ten-fold excess of volume of the same buffer was added and cells were centrifuged. The medium was decanted and cells were resuspended at a concentration of 2×10^6 cells/mL in RPMI/0.05% BSA/0.2 mM MnCl2. Stock solutions (10 mM in DMSO) of test compounds were diluted to 2.5 mM with DMSO. […] Each sample was further diluted 50-fold with RPMI/0.05% BSA/0.2 mM MnCl2. Equal volumes of labeled cells were then added to assay tubes containing diluted compounds. […] Cells were incubated for 10 min at 37° C. with gentle shaking, then dispensed (100 μL per well) onto fibrinogen coated plates and incubated for 30 min at 37° C./5% CO2. Unbound cells were gently washed with TBS two times.

[4] = read-out: Mac-1/ICAM-1 Protein-Protein Assay IC50
[5] = read-out: LFA-1/ICAM-1 Protein-Protein Assay IC50

T1 sequence (P05107 23-769, other chains not shown): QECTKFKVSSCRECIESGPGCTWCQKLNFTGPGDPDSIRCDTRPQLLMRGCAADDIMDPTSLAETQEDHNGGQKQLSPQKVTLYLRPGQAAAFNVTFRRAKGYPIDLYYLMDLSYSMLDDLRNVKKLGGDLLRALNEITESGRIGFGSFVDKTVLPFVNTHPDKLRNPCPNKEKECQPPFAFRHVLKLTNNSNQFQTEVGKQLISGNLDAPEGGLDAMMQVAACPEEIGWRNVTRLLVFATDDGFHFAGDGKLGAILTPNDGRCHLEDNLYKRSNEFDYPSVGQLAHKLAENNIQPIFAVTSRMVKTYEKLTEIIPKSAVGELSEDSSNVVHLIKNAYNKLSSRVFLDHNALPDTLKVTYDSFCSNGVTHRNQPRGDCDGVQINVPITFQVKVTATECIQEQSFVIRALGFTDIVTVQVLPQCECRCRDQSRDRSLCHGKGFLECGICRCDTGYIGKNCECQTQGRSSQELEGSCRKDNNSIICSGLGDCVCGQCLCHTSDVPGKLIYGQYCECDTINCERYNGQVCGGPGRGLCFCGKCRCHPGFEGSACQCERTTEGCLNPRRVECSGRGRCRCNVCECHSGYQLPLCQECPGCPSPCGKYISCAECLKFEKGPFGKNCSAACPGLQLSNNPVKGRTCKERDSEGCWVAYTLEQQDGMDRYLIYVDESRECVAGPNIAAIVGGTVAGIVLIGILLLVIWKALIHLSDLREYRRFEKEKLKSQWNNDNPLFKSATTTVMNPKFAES
T2 sequence (P20701 26-1170): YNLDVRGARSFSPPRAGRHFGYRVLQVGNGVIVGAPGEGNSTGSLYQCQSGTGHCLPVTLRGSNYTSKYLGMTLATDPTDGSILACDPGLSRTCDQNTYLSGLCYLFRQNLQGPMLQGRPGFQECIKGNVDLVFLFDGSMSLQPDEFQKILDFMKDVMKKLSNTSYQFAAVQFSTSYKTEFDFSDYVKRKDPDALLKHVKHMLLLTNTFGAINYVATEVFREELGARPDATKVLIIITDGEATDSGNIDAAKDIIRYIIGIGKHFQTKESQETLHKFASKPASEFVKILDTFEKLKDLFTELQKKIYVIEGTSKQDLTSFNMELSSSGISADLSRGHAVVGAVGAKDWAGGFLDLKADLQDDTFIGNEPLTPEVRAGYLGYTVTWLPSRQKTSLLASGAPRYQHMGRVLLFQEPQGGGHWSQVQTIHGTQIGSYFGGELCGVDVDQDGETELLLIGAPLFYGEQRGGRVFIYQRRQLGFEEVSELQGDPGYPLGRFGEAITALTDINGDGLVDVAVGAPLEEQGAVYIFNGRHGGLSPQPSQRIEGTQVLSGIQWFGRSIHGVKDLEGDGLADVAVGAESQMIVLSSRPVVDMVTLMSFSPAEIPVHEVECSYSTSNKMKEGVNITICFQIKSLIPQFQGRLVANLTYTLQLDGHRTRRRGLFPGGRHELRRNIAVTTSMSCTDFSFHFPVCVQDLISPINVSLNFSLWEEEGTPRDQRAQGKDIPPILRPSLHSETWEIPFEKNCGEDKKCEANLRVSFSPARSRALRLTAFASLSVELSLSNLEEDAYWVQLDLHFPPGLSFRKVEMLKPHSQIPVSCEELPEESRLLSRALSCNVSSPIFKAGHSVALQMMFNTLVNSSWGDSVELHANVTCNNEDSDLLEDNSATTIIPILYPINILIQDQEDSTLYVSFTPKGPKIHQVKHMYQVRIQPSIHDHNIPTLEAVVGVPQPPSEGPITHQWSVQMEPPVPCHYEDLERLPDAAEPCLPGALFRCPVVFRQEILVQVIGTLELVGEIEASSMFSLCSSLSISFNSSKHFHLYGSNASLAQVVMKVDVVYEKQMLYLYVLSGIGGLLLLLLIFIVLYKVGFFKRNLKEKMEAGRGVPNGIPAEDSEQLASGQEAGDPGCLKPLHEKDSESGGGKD
T2 sequence (P05107 23-769): as the sequence (P05107 23-769, other chains not shown) above

Structure (SMILES): O=C(NCc1cccc(O)c1)c1ccc(C(=O)N[C@@H](CNC(=O)c2cnnc3ccccc23)C(=O)O)c(Cl)c1 [Example 185]
- IC50 [1, 4]: 187 nM
- IC50 [2, 5]: 1.3 nM

Structure (SMILES): O=C(NCc1cccc(O)c1)c1ccc(C(=O)N[C@@H](CNC(=O)c2c[nH]c(=O)[nH]c2=O)C(=O)O)c(Cl)c1 [Example 172]
- IC50 [1, 4]: 538 nM
- IC50 [2, 5]: 7 nM

Structure (SMILES): O=C(NCc1cccc(O)c1)c1ccc(C(=O)N[C@@H](CNC(=O)c2ccc3[nH]cnc3c2)C(=O)O)c(Cl)c1 [Example 176]
- IC50 [1, 4]: 54 nM
- IC50 [2, 5]: 1.2 nM

Structure (SMILES): O=C(NCc1cccc(O)c1)c1ccc(C(=O)N[C@@H](CNC(=O)c2ccc3ccccc3n2)C(=O)O)c(Cl)c1 [Example 181]
- IC50 [1, 4]: 176 nM
- IC50 [2, 5]: 12 nM

Structure (SMILES): COc1cc(C(=O)NC[C@H](NC(=O)c2ccc(C(=O)NCc3cccc(O)c3)cc2Cl)C(=O)O)nc2ccccc12 [Compound E, N-[2-chloro-4-[[[(3-hydroxyphenyl)methyl]amino]carbonyl]benzoyl]-3-(4-methoxyquinoline-2-carbonyl)amino-L-alanine]
- IC50 ([1]; read-out: Mac-1/ICAM IC50): 521 nM
- IC50 ([2]; read-out: LFA-1/ICAM IC50): 15.2 nM

Structure (SMILES): O=C(COc1ccccc1)c1ccc(C(=O)N[C@@H](CNC(=O)c2cccs2)C(=O)O)c(Cl)c1 [Example 376, N-[2-chloro-4-(phenoxyacetyl)benzoyl]-3-(thiophene-2-carbonyl)amino-L-alanine]
- IC50 [1, 4]: 152 nM
- IC50 [2, 5]: 37 nM

Structure (SMILES): O=C(NCc1cccc(O)c1)c1ccc(C(=O)N[C@@H](CNC(=O)c2cc([N+](=O)[O-])[nH]n2)C(=O)O)c(Cl)c1 [Example 152]
- IC50 [3]: 1220 nM

Structure (SMILES): O=C(NCc1cccc2[nH]ccc12)c1ccc(C(=O)N[C@@H](CNCc2ccccc2)C(=O)O)c(Cl)c1 [Compound J, 3-(phenylmethyl)amino-N-[2-chloro-4-[[(1H-indol-4-ylmethyl)amino]carbonyl]benzoyl]-L-alanine]
- IC50 ([1]; read-out: Mac-1/ICAM IC50): 1410 nM
- IC50 ([2]; read-out: LFA-1/ICAM IC50): 11.9 nM

Structure (SMILES): O=C(NC[C@H](NC(=O)c1c(F)cccc1Cl)C(=O)O)c1ccccc1 [Example 220]
- IC50 [1, 4]: 304 nM
- IC50 [2, 5]: 14 nM

Structure (SMILES): O=C(NCc1cccc(O)c1)c1ccc(C(=O)N[C@@H](CNC(=O)c2cc([N+](=O)[O-])[nH]n2)C(=O)O)c(Cl)c1 [Compound C, N-[2-chloro-4-[[[(3-hydroxyphenyl)methyl]amino]carbonyl]benzoyl]-3-(5-nitropyrazole-3-carbonyl)amino-L-alanine]
- IC50 ([1]; read-out: Mac-1/ICAM IC50): 101 nM
- IC50 ([2]; read-out: LFA-1/ICAM IC50): 6.4 nM
